In the C3SDB collision cross section collection:
Where a name gives a salt, the structure may show the parent alone.

Details: instrument: TW, calibrated with polyalanine and drug standards

SMILES | collision cross section (N2) ([M+H]+) | further results
N[C@@H](Cc1ccc(N(CCCl)CCCl)cc1)C(=O)O [MELPHALAN] | 168.7 Å² | 
S=c1nc[nH]c2nc[nH]c12 [MERCAPTOPURINE] | 125.5 Å² | 
CC(=O)Nc1cccc(O)c1 [METACETAMOL] | 130.6 Å² | 
COc1cc2c(cc1OC)C(=O)OC2 [METAMECONINE] | 137.6 Å² | 
CC(C)NCC(O)c1cc(O)cc(O)c1 (configuration not stated) [METAPROTERENOL] | 149.9 Å² | 
COc1c2c(cc3occ(-c4ccc5c(c4)OCO5)c(=O)c13)OC(C)(C)C=C2 [METHYL ROBUSTONE] | 186.9 Å² | 
C[C@H]1C[C@@H]2[C@H]([C@@H](O)C[C@@]3(C)[C@H]2CC[C@]3(O)C(=O)CO)[C@@]2(C)C=CC(=O)C=C12 [METHYLPREDNISOLONE] | 187.7 Å² | 
COCCc1ccc(OCC(O)CNC(C)C)cc1 (configuration not stated) [METOPROLOL] | 170.7 Å² | 
OCCN1C[C@H](O)[C@@H](O)[C@H](O)[C@H]1CO [MIGLITOL] | 141 Å² | 
N=c1nc(N2CCCCC2)cc(N)n1O [MINOXIDIL] | 146.1 Å² | 
CO[C@@]12[C@H](COC(N)=O)C3=C(C(=O)C(C)=C(N)C3=O)N1C[C@@H]1N[C@@H]12 [MITOMYCIN C] | 169.5 Å² | 
CC[C@@]1([C@@H]2O[C@@H]([C@H]3O[C@@](O)(CO)[C@H](C)C[C@@H]3C)C[C@@H]2C)CC[C@H]([C@]2(C)CC[C@]3(C[C@H](O)[C@@H](C)[C@@H]([C@@H](C)[C@@H](OC)[C@H](C)C(=O)O)O3)O2)O1 [MONENSIN] |  | collision cross section (N2) ([M+Na]+): 245.1 Å²
C[C@H]1C(=O)O[C@@H]2CCN3CC=C(COC(=O)[C@](C)(O)[C@]1(C)O)[C@H]23 [MONOCROTALINE] | 172.9 Å² | 
O=c1c(O)c(-c2ccc(O)cc2O)oc2cc(O)cc(O)c12 [MORIN] | 162.7 Å² | 
COc1ccc2c(c1)O[C@@H]1COc3cc(OC)c(OC)cc3[C@@H]1C2=O [MUNDOSERONE] | 175.1 Å² | 
COc1c(-c2coc3cc4c(cc3c2=O)CC(OC(C)=O)C(C)(C)O4)ccc2c1C=CC(C)(C)O2 (configuration not stated) [MUNDULONE ACETATE] | 222.7 Å² | 
COc1c(-c2coc3cc4c(cc3c2=O)CC(O)C(C)(C)O4)ccc2c1C=CC(C)(C)O2 (configuration not stated) [MUNDULONE] | 210.9 Å² | 
C/C(=C\C(=O)OCCCCCCCCC(=O)O)C[C@@H]1OC[C@H](C[C@@H]2O[C@H]2[C@@H](C)[C@H](C)O)[C@@H](O)[C@H]1O [MUPIROCIN] | 214.8 Å² | 
O=C(O)c1ccccc1Nc1ccccc1 [N-PHENYLANTHRANILIC ACID] | 144.5 Å² | 
COc1ccc2cc(CCC(C)=O)ccc2c1 [NABUMETONE] | 148 Å² | 
NC(=O)c1ccc[n+]([C@@H]2O[C@H](COP(=O)([O-])OP(=O)(O)OC[C@H]3O[C@@H](n4cnc5c(N)ncnc54)[C@H](O)[C@@H]3O)[C@@H](O)[C@H]2O)c1 [NADIDE] | 227 Å² | 
COc1ccc2cc([C@H](C)CO)ccc2c1 [NAPROXOL] | 140 Å² | 
O=C1CC(c2ccc(O)cc2)Oc2cc(O)cc(O)c21 (configuration not stated) [NARINGENIN] | 160.6 Å² | 
C[C@@H]1O[C@@H](O[C@H]2[C@H](Oc3cc(O)c4c(c3)O[C@H](c3ccc(O)cc3)CC4=O)O[C@H](CO)[C@@H](O)[C@@H]2O)[C@H](O)[C@H](O)[C@H]1O [NARINGIN] |  | collision cross section (N2) ([M+Na]+): 233.5 Å²

SMILES | collision cross section (N2) ([M+H]+) | further results
CC(C)C1CCC(C(=O)N[C@H](Cc2ccccc2)C(=O)O)CC1 (some centres not stated) [NATEGLINIDE] | 178.6 Å² | 
O=C(O)c1cccnc1 [NIACIN] | 120.3 Å² | 
O=C(CCNNC(=O)c1ccncc1)NCc1ccccc1 [NIALAMIDE] | 174.3 Å² | 
CO[C@]12C[C@@H](COC(=O)c3cncc(Br)c3)CN(C)[C@@H]1Cc1cn(C)c3cccc2c13 [NICERGOLINE] | 213.8 Å² | 
COC(=O)C1=C(C)NC(C)=C(C(=O)OC)C1c1ccccc1[N+](=O)[O-] [NIFEDIPINE] |  | collision cross section (N2) ([M+H-H2O]+): 169.4 Å²
O=C(O)c1cccnc1Nc1cccc(C(F)(F)F)c1 [NIFLUMIC ACID] | 159.4 Å² | 
O=C(O)C1CCCNC1 (configuration not stated) [NIPECOTIC ACID] | 124.6 Å² | 
COC(=O)C1=C(C)NC(C)=C(C(=O)OCC(C)C)C1c1ccccc1[N+](=O)[O-] (configuration not stated) [NISOLDIPINE] | 187.2 Å² | 
CN/C(=C\[N+](=O)[O-])NCCSCc1csc(CN(C)C)n1 [NIZATIDINE] | 169.1 Å² | 
COC(=O)Nc1nc2ccc(C(=O)c3cccs3)cc2[nH]1 [NOCODAZOLE] | 168.7 Å² | 
C#C[C@]1(O)CC[C@H]2[C@@H]3CCC4=C(CCC(=O)C4)[C@H]3CC[C@@]21C [NORETHYNODREL] | 174.6 Å² | 
c1ccc2c(c1)[nH]c1cnccc12 [NORHARMAN] | 132.2 Å² | 
N[C@@H](COCc1ccccc1)C(=O)O [O-BENZYL-l-SERINE] | 142.5 Å² | 
COC1=CC(=O)C(O)=C/C1=C\C=C\c1ccccc1 [OBTUSAQUINONE] | 155.1 Å² | 
CC(C)CCCC(C)N (configuration not stated) [OCTODRINE] | 134.7 Å² | 
CCCc1nc(C(C)(C)O)c(C(=O)OCc2oc(=O)oc2C)n1Cc1ccc(-c2ccccc2-c2nn[nH]n2)cc1 [OLMESARTAN MEDOXOMIL] | 225 Å² | 
CC(C)=CCc1c2c(c3occ(-c4ccc(O)cc4)c(=O)c3c1O)C=CC(C)(C)O2 [OSAJIN] | 201.4 Å² | 
CCOC(=O)C1=C[C@@H](OC(CC)CC)[C@H](NC(C)=O)[C@@H](N)C1 [OSELTAMIVIR] | 180.7 Å² | 
COC[C@]12CN(C=O)C3[C@@H]4[C@H](OC)C1[C@]3(C1CC3(O)C(OC)C(O)C4(OC(C)=O)C1C3OC(=O)c1ccccc1)[C@@H](OC)C[C@H]2O (some centres not stated) [OXONITINE] | 236.2 Å² | 
COc1ccc(C(=O)c2ccccc2)c(O)c1 [OXYBENZONE] | 146.5 Å² | 
CCCCC1C(=O)N(c2ccccc2)N(c2ccc(O)cc2)C1=O (configuration not stated) [OXYPHENBUTAZONE] | 177.2 Å² | 
COc1ccc(C(C)=O)c(O)c1 [PAEONOL] | 124.9 Å² | 
CC(C)(CO)[C@@H](O)C(=O)NCCC(=O)NCCSSCCNC(=O)CCNC(=O)[C@H](O)C(C)(C)CO [PANTETHINE] | 222.5 Å² | 
CC(C)(CO)[C@@H](O)C(=O)NCCC(=O)[O-] [PANTOTHENIC ACID(d) Na salt] | 146.7 Å² | 

SMILES | collision cross section (N2) ([M+H]+) | further results
C=C1C(=O)O[C@@H]2[C@H]3O[C@]3(C)CC/C=C(\C)CC[C@@H]12 [PARTHENOLIDE] |  | collision cross section (N2) ([M+H-H2O]+): 150.7 Å²
O=C(O)CN(CCN(CC(=O)O)CC(=O)O)CCN(CC(=O)O)CC(=O)O [PENTETIC ACID] | 180.2 Å² | 
CC(=O)CCCCn1c(=O)c2c(ncn2C)n(C)c1=O [PENTOXIFYLLINE] | 158.5 Å² | 
C=C(C)[C@H]1CC=C(C(=O)O)CC1 [PERILLIC ACID (-)] | 124.9 Å² | 
OCCN1CCN(CCCN2c3ccccc3Sc3ccc(Cl)cc32)CC1 [PERPHENAZINE] | 192 Å² | 
CC(=O)OCC(OC(C)=O)C(OC(C)=O)C(OC(C)=O)C(OC(C)=O)C(COC(C)=O)OC(C)=O (configuration not stated) [PERSEITOL HEPTAACETATE] |  | collision cross section (N2) ([M+Na]+): 205.7 Å²
CC(C)=CCc1c(O)cc2oc(C)cc(=O)c2c1O [PEUCENIN] | 154.2 Å² | 
CC(=O)c1c(O)cc(O)cc1O [PHLORACETOPHENONE] | 129 Å² | 
COc1cc([C@@H]2c3cc4c(cc3[C@H](O)[C@H]3COC(=O)[C@@H]23)OCO4)cc(OC)c1OC [PICROPODOPHYLLIN] |  | collision cross section (N2) ([M+H-H2O]+): 190.9 Å²
O=c1[nH]c2ccccc2n1C1CCN(CCCC(c2ccc(F)cc2)c2ccc(F)cc2)CC1 [PIMOZIDE] | 212.6 Å² | 
CCn1cc(C(=O)O)c(=O)c2cnc(N3CCNCC3)nc21 [PIPEMIDIC ACID] | 171 Å² | 
Cc1nc2ccccn2c(=O)c1CCN1CCC(C(=O)c2ccc(F)cc2)CC1 [PIRENPERONE] | 196.8 Å² | 
CC1=CC(=O)c2c(O)cccc2C1=O [PLUMBAGIN] | 124.1 Å² | 
COc1cc([C@@H]2c3cc4c(cc3[C@H](O)[C@H]3COC(=O)[C@H]23)OCO4)cc(OC)c1OC [PODOFILOX] | 189.6 Å² | collision cross section (N2) ([M+H-H2O]+): 190.1 Å²
O=C(C1CCCCC1)N1CC(=O)N2CCc3ccccc3C2C1 (configuration not stated) [PRAZIQUANTEL] | 176.5 Å² | 
C[C@]12C=CC(=O)C=C1CC[C@@H]1[C@@H]2[C@@H](O)C[C@@]2(C)[C@H]1CC[C@]2(O)C(=O)COC(=O)CCC(=O)O [PREDNISOLONE HEMISUCCINATE] | 210.3 Å² | 
COC(=O)[C@]1(C)CC[C@]2(C)CC[C@]3(C)C4=CC=C5C(=CC(=O)C(O)=C5C)[C@]4(C)CC[C@@]3(C)[C@@H]2C1 [PRISTIMERIN] | 211.2 Å² | 
CCCN(CCC)S(=O)(=O)c1ccc(C(=O)O)cc1 [PROBENECID] | 161.4 Å² | 
CCN(CC)CCOC(=O)c1ccc(N)cc1 [PROCAINE] | 154.7 Å² | 
CNCCCC1c2ccccc2C=Cc2ccccc21 [PROTRYPTYLINE HYDROCHLORIDE] | 162.8 Å² | 
CC(O)Cn1cnc2c1c(=O)n(C)c(=O)n2C (configuration not stated) [PROXYPHYLLINE] | 149.1 Å² | 
O=c1c(-c2ccc(O)cc2)coc2c([C@@H]3O[C@H](CO)[C@@H](O)[C@H](O)[C@H]3O)c(O)ccc12 [PUERARIN] | 196.4 Å² | 
OCCOCCN1CCN(C2=Nc3ccccc3Sc3ccccc32)CC1 [QUETIAPINE] | 191.5 Å² | 
